# Test system: patients with MDD and an inadequate response to an SSRI or SNRI
# Test: Massachusetts General Hospital Sexual Functioning Index (MGH-SFI), Study ACP-103-042
# Type: in vivo, human
# Parameters: key to MGH-SFI Ability to Get Sexually Aroused or Excited, treatment effect size / MGH-SFI Ability to Achieve Orgasm, treatment effect size / MGH-SFI Overall Sexual Satisfaction, treatment effect size: Cohen's d = LS mean difference (PIM vs PBO) / SD
# Source text: “Massachusetts General Hospital Sexual Functioning Index (MGH-SFI)” is described, for instance, in Labbate and Lare, 2001, Psychother Psychosom. 70(4):221-225. This is a patient facing questionnaire that quantifies sexual dysfunction into 5 functional domains (“interest in sex,” “sexual arousal,” “ability to achieve orgasm,” “ability to maintain erection” (males only), and “sexual satisfaction”). Patients rate each item using a 6-point scale ranging from 1 (good function) to 6 (poor function). High scores indicate poor sexual functioning. […] The determination of the subject's status and eligibility for randomization in Stage 2 was made in a double-blind manner. […] Sexual functioning was assessed using the Massachusetts General Hospital Sexual Functioning Index or MGH-SFI (Labbate and Lare, 2001, Psychother Psychosom. 70(4):221-225). This is a patient facing questionnaire that quantifies sexual dysfunction into 5 functional domains (“interest in sex,” “sexual arousal,” “ability to achieve orgasm,” “ability to maintain erection” [malesonly], and “sexual satisfaction”). Patients rate each item using a 6-point scale ranging from 1 (good function) to 6 (poor function). The time frame for this scale is the past month. This scale was administered at baseline and Week 5 in both stages of the study. High scores indicate poor sexual functioning. In ACP-103-042 the mean scores for MGH-SFI at Baseline was calculated over all 5 domains for males and the 4 domains for females. For MGH-SFI (follow-up version) at Study Weeks 5 and 10, the mean was calculated in the same way as MGH-SFI at Baseline. […] Tables 10-27 summarize the detailed data of MGH-SFI individual items of the overall study group (Tables 10-15), the subgroup of age of <=50 (Tables 16-21) and the subgroup of age of >50 (Table 21-26). In Tables 9-26, ANCOVA=analysis of covariance; OC=observed cases; LSM=least squares mean; CI=confidence interval; SD=standard deviation; SE=standard error. Stage 1: Baseline=Study Week 0, Week 5=Study Week 5; Stage 2: Baseline=Study Week 5, Week 5=Study Weeks 10. LSM from the stage-specific ANCOVA analysis with the change from baseline as the outcome, treatment group as a factor, and the corresponding Baseline value as a covariate. 2-sided p-value for treatment difference from the stage-specific ANCOVA analysis. An treatment effect size (Cohen's d) is calculated using the formula: Effect Size=Least Square mean difference between PIM and PBO/SD. The corresponding 95% confidence interval for an effect size is calculated based on the theoretical probability distribution of the effect size. […] Tables 10-15 and 28-38 summarize the detailed data of MGH-SFI individual items of the overall study group (Tables 10-15), the female subgroup (Tables 33-37) and the male subgroup (Table 38-43). An treatment effect size (Cohen's d) is calculated using the formula: Effect Size=Least Square mean difference between PIM and PBO/SD. The corresponding 95% confidence interval for an effect size is calculated based on the theoretical probability distribution of the effect size. In Tables 10-15 and 28-38, ANCOVA=analysis of covariance; OC=observed cases; LSM=least squares mean; CI=confidence interval; SD=standard deviation; SE=standard error. Stage 1: Baseline=Study Week 0, Week 5=Study Week 5; Stage 2: Baseline=Study Week 5, Week 5=Study Weeks 10. LSM from the stage-specific ANCOVA analysis with the change from baseline as the outcome, treatment group as a factor, and the corresponding Baseline value as a covariate. 2-sided p-value for treatment difference from the stage-specific ANCOVA analysis. An treatment effect size (Cohen's d) is calculated using the formula: Effect Size=Least Square mean difference between PIM and PBO/SD. The corresponding 95% confidence interval for an effect size is calculated based on the theoretical probability distribution of the effect size.
# [1] = Stage 1, Overall Study Group, 34 mg QD + SSRI/SNRI
# [2] = Stage 1, Subgroup of <=50 Years
# [3] = Stage 1, Subgroup of <=50 Years Old
# [4] = Stage 1, Subgroup of <=50 Years Old, 34 mg QD + SSRI/SNRI
compound,measurement,setting,value
"CC(C)COc1ccc(CNC(=O)N(Cc2ccc(F)cc2)C2CCN(C)CC2)cc1 [pimavanserin, N-(4-Fluorophenylmethyl)-N-(1-methylpiperidin-4-yl)-N′-(4-(2-methylpropyloxy)phenylmethyl)carbamide]",MGH-SFI Items mean change stratified by age >50 or ≤50 years vs placebo,Stage 1,differences were only significant for the age >50 years subgroup
same,MGH-SFI treatment effect size for pimavanserin compared to placebo,Stage 1,0.614
same,"MGH-SFI 01: Interest in Sex, Change from Baseline to Week 5 Mean (SE)","Stage 1, Overall Study Group",−0.9 (0.23)
same,"MGH-SFI 01: Interest in Sex, Change from Baseline to Week 5 Median","Stage 1, Overall Study Group",−1.0
same,"MGH-SFI 01: Interest in Sex, Effect Size (Cohen's d)","Stage 1, Overall Study Group",0.483
same,"MGH-SFI 01: Interest in Sex, Week 5 Median","Stage 1, Overall Study Group",4.0
same,"MGH-SFI 02: Ability to Get Sexually Aroused or Excited, Change from Baseline to Week 5 Mean (SE)","Stage 1, Overall Study Group",−0.8 (0.17)
same,"MGH-SFI 02: Ability to Get Sexually Aroused or Excited, Change from Baseline to Week 5 Median","Stage 1, Overall Study Group",−1.0
same,"MGH-SFI 02: Ability to Get Sexually Aroused or Excited, Effect Size (Cohen's d)","Stage 1, Overall Study Group",0.560
same,"MGH-SFI 02: Ability to Get Sexually Aroused or Excited, Week 5 Median","Stage 1, Overall Study Group",4.0
same,"MGH-SFI 03: Ability to Achieve Orgasm, Change from Baseline to Week 5 Mean (SE)","Stage 1, Overall Study Group",−1.0 (0.24)
same,"MGH-SFI 03: Ability to Achieve Orgasm, Change from Baseline to Week 5 Median","Stage 1, Overall Study Group",0.0
same,"MGH-SFI 03: Ability to Achieve Orgasm, Effect Size (Cohen's d)","Stage 1, Overall Study Group",0.609
same,"MGH-SFI 03: Ability to Achieve Orgasm, Week 5 Median","Stage 1, Overall Study Group",4.0
same,"MGH-SFI 04: (Men) Ability to Get and Maintain an Erection, Change from Baseline to Week 5 Mean (SE)","Stage 1, Overall Study Group",−0.3 (0.78)
same,"MGH-SFI 04: (Men) Ability to Get and Maintain an Erection, Change from Baseline to Week 5 Median","Stage 1, Overall Study Group",0.0
same,"MGH-SFI 04: (Men) Ability to Get and Maintain an Erection, Effect Size (Cohen's d)","Stage 1, Overall Study Group",0.105
same,"MGH-SFI 04: (Men) Ability to Get and Maintain an Erection, Week 5 Median","Stage 1, Overall Study Group",3.0
same,"MGH-SFI 05: Overall Sexual Satisfaction, Change from Baseline to Week 5 Mean (SE)","Stage 1, Overall Study Group",−0.8 (0.25)
same,"MGH-SFI 05: Overall Sexual Satisfaction, Change from Baseline to Week 5 Median","Stage 1, Overall Study Group",0.0
same,"MGH-SFI 05: Overall Sexual Satisfaction, Effect Size (Cohen's d)","Stage 1, Overall Study Group",0.524
same,"MGH-SFI 05: Overall Sexual Satisfaction, Week 5 Median","Stage 1, Overall Study Group",4.0
same,"MGH-SFI 06: Overall Improvement Since Last Medication Change, Effect Size (Cohen's d)","Stage 1, Overall Study Group",0.539
same,"MGH-SFI 06: Overall Improvement Since Last Medication Change, Week 5 Median","Stage 1, Overall Study Group",4.0
same,"MGH-SFI 01: Interest in Sex, Week 5 Mean (SE)",[1],3.8 (0.27)
same,"MGH-SFI 02: Ability to Get Sexually Aroused or Excited, Week 5 Mean (SE)",[1],3.7 (0.26)
same,"MGH-SFI 03: Ability to Achieve Orgasm, Week 5 Mean (SE)",[1],3.8 (0.26)
same,"MGH-SFI 04: (Men) Ability to Get and Maintain an Erection, Week 5 Mean (SE)",[1],3.9 (0.70)
same,"MGH-SFI 05: Overall Sexual Satisfaction, Week 5 Mean (SE)",[1],3.9 (0.27)
same,"MGH-SFI 06: Overall Improvement Since Last Medication Change, Week 5 Mean (SE)",[1],3.2 (0.17)
same,"MGH-SFI 01: Interest in Sex, Change from Baseline to Week 5 Mean (SE)",[2],−0.7 (0.45)
same,"MGH-SFI 01: Interest in Sex, Change from Baseline to Week 5 Median",[2],0.0
same,"MGH-SFI 01: Interest in Sex, Effect Size (Cohen's d)",[2],0.347
same,"MGH-SFI 01: Interest in Sex, Week 5 Median",[2],3.0
same,"MGH-SFI 02: Ability to Get Sexually Aroused or Excited, Change from Baseline to Week 5 Mean (SE)",[3],−0.5 (0.27)
same,"MGH-SFI 02: Ability to Get Sexually Aroused or Excited, Change from Baseline to Week 5 Median",[3],0.0
same,"MGH-SFI 02: Ability to Get Sexually Aroused or Excited, Effect Size (Cohen's d)",[3],0.447
same,"MGH-SFI 02: Ability to Get Sexually Aroused or Excited, Week 5 Median",[3],3.0
same,"MGH-SFI 03: Ability to Achieve Orgasm, Change from Baseline to Week 5 Mean (SE)",[3],−0.8 (0.36)
same,"MGH-SFI 03: Ability to Achieve Orgasm, Change from Baseline to Week 5 Median",[3],0.0
same,"MGH-SFI 03: Ability to Achieve Orgasm, Effect Size (Cohen's d)",[3],0.352
same,"MGH-SFI 03: Ability to Achieve Orgasm, Week 5 Median",[3],4.0
same,"MGH-SFI 02: Ability to Get Sexually Aroused or Excited, Week 5 Mean (SE)",[4],3.4 (0.42)
same,"MGH-SFI 03: Ability to Achieve Orgasm, Week 5 Mean (SE)",[4],3.8 (0.42)
same,"MGH-SFI 01: Interest in Sex, Week 5 Mean (SE)","Stage 1, Subgroup of <=50 Years, 34 mg QD + SSRI/SNRI",3.5 (0.45)
same,"MGH-SFI Ability to Achieve Orgasm, treatment effect size","Stage 1, female subgroup",0.749
same,"MGH-SFI Ability to Get Sexually Aroused or Excited, treatment effect size","Stage 1, female subgroup",0.616
same,"MGH-SFI Interest in Sex, treatment effect size","Stage 1, female subgroup",0.561
same,"MGH-SFI Overall Improvement Since Last Medication Change, treatment effect size","Stage 1, female subgroup",0.634
same,"MGH-SFI Overall Sexual Satisfaction, treatment effect size","Stage 1, female subgroup",0.627
same,MGH-SFI effects vs placebo when assessed by MDD remission status,"Stage 1, patients with or without remission",robust and significant effects
same,MGH-SFI treatment effect size for pimavanserin compared to placebo,Stage 2,0.412
same,"MGH-SFI 01: Interest in Sex, Change from Baseline to Week 5 Mean (SE)","Stage 2, Overall Study Group",−0.4 (0.16)
same,"MGH-SFI 01: Interest in Sex, Change from Baseline to Week 5 Median","Stage 2, Overall Study Group",0.0
same,"MGH-SFI 01: Interest in Sex, Effect Size (Cohen's d)","Stage 2, Overall Study Group",0.227
same,"MGH-SFI 01: Interest in Sex, Week 5 Median","Stage 2, Overall Study Group",4.0
same,"MGH-SFI 02: Ability to Get Sexually Aroused or Excited, Change from Baseline to Week 5 Mean (SE)","Stage 2, Overall Study Group",−0.4 (0.16)
same,"MGH-SFI 02: Ability to Get Sexually Aroused or Excited, Change from Baseline to Week 5 Median","Stage 2, Overall Study Group",0.0
same,"MGH-SFI 02: Ability to Get Sexually Aroused or Excited, Effect Size (Cohen's d)","Stage 2, Overall Study Group",−0.025
same,"MGH-SFI 02: Ability to Get Sexually Aroused or Excited, Week 5 Median","Stage 2, Overall Study Group",4.5
same,"MGH-SFI 03: Ability to Achieve Orgasm, Change from Baseline to Week 5 Mean (SE)","Stage 2, Overall Study Group",−0.4 (0.18)
same,"MGH-SFI 03: Ability to Achieve Orgasm, Change from Baseline to Week 5 Median","Stage 2, Overall Study Group",0.0
same,"MGH-SFI 03: Ability to Achieve Orgasm, Effect Size (Cohen's d)","Stage 2, Overall Study Group",0.300
same,"MGH-SFI 03: Ability to Achieve Orgasm, Week 5 Median","Stage 2, Overall Study Group",5.0
same,"MGH-SFI 04: (Men) Ability to Get and Maintain an Erection, Change from Baseline to Week 5 Mean (SE)","Stage 2, Overall Study Group",−1.0 (0.41)
same,"MGH-SFI 04: (Men) Ability to Get and Maintain an Erection, Change from Baseline to Week 5 Median","Stage 2, Overall Study Group",−1.0
same,"MGH-SFI 04: (Men) Ability to Get and Maintain an Erection, Effect Size (Cohen's d)","Stage 2, Overall Study Group",0.701
same,"MGH-SFI 04: (Men) Ability to Get and Maintain an Erection, Week 5 Median","Stage 2, Overall Study Group",4.0
same,"MGH-SFI 05: Overall Sexual Satisfaction, Change from Baseline to Week 5 Mean (SE)","Stage 2, Overall Study Group",−0.7 (0.25)
same,"MGH-SFI 05: Overall Sexual Satisfaction, Change from Baseline to Week 5 Median","Stage 2, Overall Study Group",−0.5

# Source: patent publication US20220016101A1 (ACADIA Pharmaceuticals Inc., priority 2018, published 2022)
